Source: US20260158017A1, “KIF18A INHIBITOR” (WIGEN BIOMEDICINE TECHNOLOGY (SHANGHAI) CO., LTD., priority 2021, published 2026)

System: HT-29 cells
Assay: In vitro anti-proliferative activity against HT-29 cells (intracellular ATP content, 72 h)
Format: cell-based
Conditions: Homo sapiens, 72 h after dosing
Experimental: Biological Example 2. In Vitro Anti-Proliferative Activity of the Compounds of the Present Invention Against HT-29 Cells
(§1) HT-29 cells were seeded on a 384-well plate at 3000 cells/well. After overnight adherence culture, DMSO or the compounds serially 1:5-diluted from 5 μM were added. The viability of the cells was assessed 72 h after dosing by measuring the intracellular ATP content. The inhibition percentages of viable cells by the compounds were calculated by comparing with the DMSO group, and the IC50 values were also calculated.

| IC50 | Compound |
| --- | --- |
| 34.2 nM | CNc1ccc(NC(=O)c2ccc(NS(=O)(=O)CCO)cc2N2CCC3(CC2)CC3)nc1N1CCC(F)(F)CC1 [Compound 643] |
| 334 nM | CN(C)c1ccc(NC(=O)c2ccc(NS(=O)(=O)CCO)cc2N2CCC3(CC2)CC3)nc1N1CCC(F)(F)CC1 [Compound 647] |
| 1170 nM | O=C(Nc1ccc(OC(F)(F)F)c(N2CCC(F)(F)CC2)c1)c1ccc(NS(=O)(=O)CCO)cc1N1CCC2(CC1)CC2 [Compound 655] |
| 76.7 nM | Nc1ccc(NC(=O)c2ccc(NS(=O)(=O)CCO)cc2N2CCC3(CC2)CC3)cc1N1CCC(F)(F)CC1 [Compound 701] |

Target: T1, Recombinant human KIF18A (1-467His-tagged) protein (Homo sapiens, UniProt Q8NI77)
T1 construct: Recombinant human KIF18A (1-467His-tagged) protein; His; made in house
T1 sequence (Q8NI77 1-467): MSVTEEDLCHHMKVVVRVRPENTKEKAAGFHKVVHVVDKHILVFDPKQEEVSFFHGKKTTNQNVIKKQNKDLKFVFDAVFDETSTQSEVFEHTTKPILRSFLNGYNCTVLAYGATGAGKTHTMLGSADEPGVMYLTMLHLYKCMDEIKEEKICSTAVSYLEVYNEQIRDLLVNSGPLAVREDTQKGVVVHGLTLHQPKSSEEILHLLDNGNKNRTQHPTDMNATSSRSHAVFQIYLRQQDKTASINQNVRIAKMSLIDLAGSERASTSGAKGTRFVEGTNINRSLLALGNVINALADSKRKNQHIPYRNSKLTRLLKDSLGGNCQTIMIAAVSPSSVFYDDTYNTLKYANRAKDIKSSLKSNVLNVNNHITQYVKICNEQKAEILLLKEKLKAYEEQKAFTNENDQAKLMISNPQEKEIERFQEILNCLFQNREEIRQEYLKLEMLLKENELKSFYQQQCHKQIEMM
T1 sequence (P02550 whole entry partner): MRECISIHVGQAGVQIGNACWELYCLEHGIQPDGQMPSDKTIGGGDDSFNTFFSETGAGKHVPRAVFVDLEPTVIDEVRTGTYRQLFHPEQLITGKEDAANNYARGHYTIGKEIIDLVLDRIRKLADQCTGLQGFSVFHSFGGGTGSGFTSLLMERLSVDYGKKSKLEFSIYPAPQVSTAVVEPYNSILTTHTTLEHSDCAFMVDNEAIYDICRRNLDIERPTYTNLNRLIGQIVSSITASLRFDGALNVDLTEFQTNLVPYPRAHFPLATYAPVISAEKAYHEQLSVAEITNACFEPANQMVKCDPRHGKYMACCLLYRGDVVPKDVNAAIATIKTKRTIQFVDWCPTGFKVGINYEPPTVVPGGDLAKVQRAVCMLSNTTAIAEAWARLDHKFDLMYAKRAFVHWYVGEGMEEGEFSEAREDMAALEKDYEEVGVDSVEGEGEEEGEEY
T1 sequence (P02554 whole entry partner): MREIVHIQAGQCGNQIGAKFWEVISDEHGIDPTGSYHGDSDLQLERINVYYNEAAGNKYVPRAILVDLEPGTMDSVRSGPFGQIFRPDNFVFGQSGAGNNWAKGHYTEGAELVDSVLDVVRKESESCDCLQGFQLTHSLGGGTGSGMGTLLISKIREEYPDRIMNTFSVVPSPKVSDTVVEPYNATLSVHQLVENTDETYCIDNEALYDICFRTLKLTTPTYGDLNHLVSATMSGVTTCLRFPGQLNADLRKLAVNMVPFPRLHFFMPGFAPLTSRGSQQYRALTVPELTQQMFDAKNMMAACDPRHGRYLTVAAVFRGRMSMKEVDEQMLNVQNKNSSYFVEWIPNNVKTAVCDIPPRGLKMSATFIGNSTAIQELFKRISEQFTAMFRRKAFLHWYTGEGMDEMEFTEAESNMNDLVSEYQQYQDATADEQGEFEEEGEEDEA
Assay: KIF18A enzyme assay (microtubule-stimulated ATPase activity, ADP-Glo)
Format: biochemical
Conditions: 30 nM KIF18A, 75 μM ATP, 30 μg/mL pig microtubules; read-out: Inhibitory activity against KIF18A IC50
Summary of the method: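 Buffer 15 mM Tris pH 7.5, 10 mM MgCl2, 0.01% Pluronic F-68, 1 μM paclitaxel, 30 μg/mL pig microtubules; reactions at room temperature. IC50 from inhibition relative to DMSO.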

| IC50 | Compound |
| --- | --- |
| ≤ 100 nM | CSc1ccc(NC(=O)c2ccc(NS(=O)(=O)CCO)cc2N2CCC3(CC2)CC3)cc1N1CCC(F)CC1 [Compound 585] |
| ≤ 100 nM | CSc1ccc(NC(=O)c2ccc(NS(=O)(=O)CCO)cc2N2CCC3(CC2)CC3)cc1N1CC2CC2C1 (stereo not drawn) [Compound 586] |
| ≤ 100 nM | CSc1ccc(NC(=O)c2ccc(NS(=O)(=O)CCO)cc2N2CCC3(CC2)CC3)cc1NC(C)(C)CO [Compound 587] |
| ≤ 100 nM | CSc1ccc(NC(=O)c2ccc(NS(=O)(=O)CCO)cc2N2CCC3(CC2)CC3)cc1N1CCOCC1 [Compound 588] |
| ≤ 100 nM | CSc1ccc(NC(=O)c2ccc(NS(=O)(=O)[C@@H](C)CO)cc2N2CCC3(CC2)CC3)cc1N1CCC(F)(F)CC1 [Compound 589] |
| ≤ 100 nM | CSc1ccc(NC(=O)c2ccc(NS(=O)(=O)[C@H](C)CO)cc2N2CCC3(CC2)CC3)cc1N1CCC(F)(F)CC1 [Compound 590] |
| ≤ 100 nM | CSc1ccc(NC(=O)c2ccc(NS(=O)(=O)[C@@H](C)CO)cc2N2CCC3(CC2)CC3)cc1N1CCO[C@H](C)C1 [Compound 591] |
| ≤ 100 nM | CSc1ccc(NC(=O)c2ccc(NS(=O)(=O)[C@H](C)CO)cc2N2CCC3(CC2)CC3)cc1N1CCO[C@H](C)C1 [Compound 592] |
| ≤ 100 nM | CSc1ccc(NC(=O)c2ccc(NS(=O)(=O)CCO)cc2N2CCC3(CC2)CC3)nc1N1CCO[C@H](C)C1 [Compound 594] |
| ≤ 100 nM | CSc1ccc(NC(=O)c2ccc(NS(=O)(=O)CCO)cc2N2CCC3(CC2)CC3)nc1N1CCO[C@@H](C)C1 [Compound 595] |
| ≤ 100 nM | CSc1ccc(NC(=O)c2ccc(NS(=O)(=O)CCO)cc2N2CCC3(CC2)CC3)nc1N1CC(F)(F)C1 [Compound 596] |
| ≤ 100 nM | CSc1ccc(NC(=O)c2ccc(NS(=O)(=O)CCO)cc2N2CCC3(CC2)CC3)nc1OCCC(F)(F)F [Compound 597] |
| ≤ 100 nM | CSc1ccc(NC(=O)c2ccc(NS(=O)(=O)CCO)cc2N2CCC3(CC2)CC3)nc1N1CCC2(CC2)C1 [Compound 598] |
| ≤ 100 nM | CSc1ccc(NC(=O)c2ccc(NS(=O)(=O)CCO)cc2N2CCC3(CC2)CC3)nc1OC1CCC1 [Compound 599] |
| ≤ 100 nM | CSc1ccc(NC(=O)c2ccc(NS(=O)(=O)CCO)cc2N2CCC3(CC2)CC3)nc1N1CCC(C)(F)C1 (stereo not drawn) [Compound 600] |
| ≤ 100 nM | CSc1ccc(NC(=O)c2ccc(NS(=O)(=O)CCO)cc2N2CCC3(CC2)CC3)nc1N1CCC(F)CC1 [Compound 601] |
| ≤ 100 nM | CSc1ccc(NC(=O)c2ccc(NS(=O)(=O)CCO)cc2N2CCC3(CC2)CC3)nc1N1CC2CC2C1 (stereo not drawn) [Compound 602] |
| ≤ 100 nM | CSc1ccc(NC(=O)c2ccc(NS(=O)(=O)CCO)cc2N2CCC3(CC2)CC3)nc1NC(C)(C)CO [Compound 603] |
| ≤ 100 nM | CSc1ccc(NC(=O)c2ccc(NS(=O)(=O)CCO)cc2N2CCC3(CC2)CC3)nc1N1CCOCC1 [Compound 604] |
| ≤ 100 nM | CSc1ccc(NC(=O)c2ccc(NS(=O)(=O)[C@@H](C)CO)cc2N2CCC3(CC2)CC3)nc1N1CCC(F)(F)CC1 [Compound 605] |
| ≤ 100 nM | CSc1ccc(NC(=O)c2ccc(NS(=O)(=O)[C@H](C)CO)cc2N2CCC3(CC2)CC3)nc1N1CCC(F)(F)CC1 [Compound 606] |
| ≤ 100 nM | CSc1ccc(NC(=O)c2ccc(NS(=O)(=O)[C@@H](C)CO)cc2N2CCC3(CC2)CC3)nc1N1CCO[C@H](C)C1 [Compound 607] |
| ≤ 100 nM | CSc1ccc(NC(=O)c2ccc(NS(=O)(=O)[C@H](C)CO)cc2N2CCC3(CC2)CC3)nc1N1CCO[C@H](C)C1 [Compound 608] |
| ≤ 100 nM | CSc1ccc(NC(=O)c2cnc(NS(=O)(=O)CCO)cc2N2CCC3(CC2)CC3)cc1N1CCC(F)(F)CC1 [Compound 609] |
| ≤ 100 nM | CSc1ccc(NC(=O)c2cnc(NS(=O)(=O)CCO)cc2N2CCC3(CC2)CC3)cc1N1CCO[C@H](C)C1 [Compound 610] |
| ≤ 100 nM | CSc1ccc(NC(=O)c2cnc(NS(=O)(=O)CCO)cc2N2CCC3(CC2)CC3)cc1N1CCO[C@@H](C)C1 [Compound 611] |
| ≤ 100 nM | CSc1ccc(NC(=O)c2cnc(NS(=O)(=O)CCO)cc2N2CCC3(CC2)CC3)cc1N1CC(F)(F)C1 [Compound 612] |
| ≤ 100 nM | CSc1ccc(NC(=O)c2cnc(NS(=O)(=O)CCO)cc2N2CCC3(CC2)CC3)cc1OCCC(F)(F)F [Compound 613] |

| IC50 | Compound |
| --- | --- |
| ≤ 100 nM | CSc1ccc(NC(=O)c2cnc(NS(=O)(=O)CCO)cc2N2CCC3(CC2)CC3)cc1N1CCC2(CC2)C1 [Compound 614] |
| ≤ 100 nM | CSc1ccc(NC(=O)c2cnc(NS(=O)(=O)CCO)cc2N2CCC3(CC2)CC3)cc1OC1CCC1 [Compound 615] |
| ≤ 100 nM | CSc1ccc(NC(=O)c2cnc(NS(=O)(=O)CCO)cc2N2CCC3(CC2)CC3)cc1N1CCC(C)(F)C1 (stereo not drawn) [Compound 616] |
| ≤ 100 nM | CSc1ccc(NC(=O)c2cnc(NS(=O)(=O)CCO)cc2N2CCC3(CC2)CC3)cc1N1CCC(F)CC1 [Compound 617] |
| ≤ 100 nM | CSc1ccc(NC(=O)c2cnc(NS(=O)(=O)CCO)cc2N2CCC3(CC2)CC3)cc1N1CC2CC2C1 (stereo not drawn) [Compound 618] |
| ≤ 100 nM | CSc1ccc(NC(=O)c2cnc(NS(=O)(=O)CCO)cc2N2CCC3(CC2)CC3)cc1NC(C)(C)CO [Compound 619] |
| ≤ 100 nM | CSc1ccc(NC(=O)c2cnc(NS(=O)(=O)CCO)cc2N2CCC3(CC2)CC3)cc1N1CCOCC1 [Compound 620] |
| ≤ 100 nM | CSc1ccc(NC(=O)c2cnc(NS(=O)(=O)[C@@H](C)CO)cc2N2CCC3(CC2)CC3)cc1N1CCC(F)(F)CC1 [Compound 621] |
| ≤ 100 nM | CSc1ccc(NC(=O)c2cnc(NS(=O)(=O)[C@H](C)CO)cc2N2CCC3(CC2)CC3)cc1N1CCC(F)(F)CC1 [Compound 622] |
| ≤ 100 nM | CSc1ccc(NC(=O)c2cnc(NS(=O)(=O)[C@@H](C)CO)cc2N2CCC3(CC2)CC3)cc1N1CCO[C@H](C)C1 [Compound 623] |
| ≤ 100 nM | CSc1ccc(NC(=O)c2cnc(NS(=O)(=O)[C@H](C)CO)cc2N2CCC3(CC2)CC3)cc1N1CCO[C@H](C)C1 [Compound 624] |
| ≤ 100 nM | CSc1ccc(NC(=O)c2cnc(NS(=O)(=O)CCO)cc2N2CCC3(CC2)CC3)nc1N1CCC(F)(F)CC1 [Compound 625] |
| ≤ 100 nM | CSc1ccc(NC(=O)c2cnc(NS(=O)(=O)CCO)cc2N2CCC3(CC2)CC3)nc1N1CCO[C@H](C)C1 [Compound 626] |
| ≤ 100 nM | CSc1ccc(NC(=O)c2cnc(NS(=O)(=O)CCO)cc2N2CCC3(CC2)CC3)nc1N1CCO[C@@H](C)C1 [Compound 627] |
| ≤ 100 nM | CSc1ccc(NC(=O)c2cnc(NS(=O)(=O)CCO)cc2N2CCC3(CC2)CC3)nc1N1CC(F)(F)C1 [Compound 628] |
| ≤ 100 nM | CSc1ccc(NC(=O)c2cnc(NS(=O)(=O)CCO)cc2N2CCC3(CC2)CC3)nc1OCCC(F)(F)F [Compound 629] |
| ≤ 100 nM | CSc1ccc(NC(=O)c2cnc(NS(=O)(=O)CCO)cc2N2CCC3(CC2)CC3)nc1N1CCC2(CC2)C1 [Compound 630] |
| ≤ 100 nM | CSc1ccc(NC(=O)c2cnc(NS(=O)(=O)CCO)cc2N2CCC3(CC2)CC3)nc1OC1CCC1 [Compound 631] |
| ≤ 100 nM | CSc1ccc(NC(=O)c2cnc(NS(=O)(=O)CCO)cc2N2CCC3(CC2)CC3)nc1N1CCC(C)(F)C1 (stereo not drawn) [Compound 632] |
| ≤ 100 nM | CSc1ccc(NC(=O)c2cnc(NS(=O)(=O)CCO)cc2N2CCC3(CC2)CC3)nc1N1CCC(F)CC1 [Compound 633] |
| ≤ 100 nM | CSc1ccc(NC(=O)c2cnc(NS(=O)(=O)CCO)cc2N2CCC3(CC2)CC3)nc1N1CC2CC2C1 (stereo not drawn) [Compound 634] |
| ≤ 100 nM | CSc1ccc(NC(=O)c2cnc(NS(=O)(=O)CCO)cc2N2CCC3(CC2)CC3)nc1NC(C)(C)CO [Compound 635] |
| ≤ 100 nM | CSc1ccc(NC(=O)c2cnc(NS(=O)(=O)CCO)cc2N2CCC3(CC2)CC3)nc1N1CCOCC1 [Compound 636] |
| ≤ 100 nM | CSc1ccc(NC(=O)c2cnc(NS(=O)(=O)[C@@H](C)CO)cc2N2CCC3(CC2)CC3)nc1N1CCC(F)(F)CC1 [Compound 637] |
| ≤ 100 nM | CSc1ccc(NC(=O)c2cnc(NS(=O)(=O)[C@H](C)CO)cc2N2CCC3(CC2)CC3)nc1N1CCC(F)(F)CC1 [Compound 638] |
| ≤ 100 nM | CSc1ccc(NC(=O)c2cnc(NS(=O)(=O)[C@@H](C)CO)cc2N2CCC3(CC2)CC3)nc1N1CCO[C@H](C)C1 [Compound 639] |
| ≤ 100 nM | CSc1ccc(NC(=O)c2cnc(NS(=O)(=O)[C@H](C)CO)cc2N2CCC3(CC2)CC3)nc1N1CCO[C@H](C)C1 [Compound 640] |

System: HCT116 cells
Assay: In vitro anti-proliferative activity against HCT116 cells (intracellular ATP content, 72 h)
Format: cell-based
Conditions: Homo sapiens, HCT-116, 72 h after dosing
Experimental: Biological Example 3. In Vitro Anti-Proliferative Activity of the Compounds of the Present Invention Against HCT116 Cells
as §1, with “HCT116” for “HT-29”, “IC 50” for “IC50”

| IC50 | Compound |
| --- | --- |
| > 10000 nM | CNc1ccc(NC(=O)c2ccc(NS(=O)(=O)CCO)cc2N2CCC3(CC2)CC3)nc1N1CCC(F)(F)CC1 [Compound 643] |
| > 10000 nM | CN(C)c1ccc(NC(=O)c2ccc(NS(=O)(=O)CCO)cc2N2CCC3(CC2)CC3)nc1N1CCC(F)(F)CC1 [Compound 647] |
| > 10000 nM | O=C(Nc1ccc(OC(F)(F)F)c(N2CCC(F)(F)CC2)c1)c1ccc(NS(=O)(=O)CCO)cc1N1CCC2(CC1)CC2 [Compound 655] |
| > 10000 nM | Nc1ccc(NC(=O)c2ccc(NS(=O)(=O)CCO)cc2N2CCC3(CC2)CC3)cc1N1CCC(F)(F)CC1 [Compound 701] |
